{
  "source": "patent US20260014246A1",
  "about": "“TREATMENT METHODS FOR VIRAL INFECTIONS” (priority 2022, published 2026)",
  "key": {"[1]": {"test_system": "Vero-E6 cells", "assay": "Cytotoxic effects in Vero-E6 cells (Reliablue viability)", "format": "cell-based", "procedure": "Data for peptide 4F (Ac-[…]-NH2; SEQ ID NO: 34) is also provided. In this example, Vero-E6 cells (96 well plate) were grown in EMEM containing 10% FBS and Pen/Strep at 37° C. and 5% CO2. Once cells reached 80% confluence, medium was replaced with fresh complete medium containing the indicated concentration of peptide (FIGS. 6A-B) or peptide complexed with DMPC (1:5 ratio weight:weight). Incubation period proceeded for 24 or 48 hrs. Cells were washed and replaced with complete medium containing fluorescent Reliablue reagent. Viability was then measured. Data are presented as percent viability compared to control (no additions). Results are presented as the mean±SEM."}, "[2]": {"test_system": "SARS-COV-2 Alpha", "details": "for IC50: Alpha"}, "[3]": {"test_system": "SARS-COV-2 Alpha", "assay": "Remdizivir treatment of mice challenged with SARS-COV-2 Alpha", "format": "in vivo, female hACE2 Knock-in mice", "details": "25 mg/kg bodyweight, single dose; 54000 pfu intranasal; untreated mice 20%"}, "[4]": {"test_system": "H1N1A-California", "format": "in vivo, female C57BL/6J mice"}, "[5]": {"test_system": "H1N1", "assay": "Second challenge with active H1N1 after intranasal peptide-inactivated H1N1", "format": "in vivo, female C57BL/6J mice", "details": "14 days"}, "[6]": {"test_system": "SARS-COV-2 Alpha", "assay": "Rechallenge with active SARS-COV-2 Alpha after EVE18 inactivated SARS-COV-2 Alpha (homologous)", "format": "in vivo, female hACE2 Knock-in mice", "details": "rechallenge with 54000 pfu SARS-COV-2 Alpha eight weeks after initial challenge; 14 days"}, "[7]": {"test_system": "SARS-COV-2 Delta", "assay": "Rechallenge with active SARS-COV-2 Delta after EVE18 inactivated SARS-COV-2 Alpha (heterologous)", "format": "in vivo, female hACE2 Knock-in mice", "details": "rechallenge with 54000 pfu SARS-COV-2 Delta nine and seven weeks after initial challenge; two groups; 14 days"}, "[8]": {"test_system": "SARS-COV-2 Alpha", "assay": "Therapeutic dosing of EVE18 in mice challenged with SARS-COV-2 Alpha", "format": "in vivo, female hACE2 Knock-in mice"}, "[9]": {"test_system": "SARS-COV-2 Delta", "assay": "SARS-COV-2 Delta pre-incubated with EVE18 and given intranasally to mice", "format": "in vivo, female hACE2 Knock-in mice", "details": "54000 pfu SARS-COV-2 Delta pre-incubated ~45 min with 10 μM peptide; intranasal; 14 days"}, "[10]": {"test_system": "SARS-COV-2 Alpha", "assay": "SARS-COV-2 Alpha pre-incubated with peptide and given intranasally to mice", "format": "in vivo, female hACE2 Knock-in mice", "details": "54000 pfu pre-incubated ~45 min with 10 μM peptide; intranasal; 14 days"}, "[11]": {"test_system": "H1N1", "assay": "Second H1N1 challenge of mice that received H1N1 and sub-cutaneous EVE14", "format": "in vivo, female C57BL/6J mice", "details": "second challenge 1200 pfu H1N1 three weeks after the first"}, "[12]": {"test_system": "H1N1", "assay": "Sub-cutaneous EVE14 in mice challenged intranasally with H1N1", "format": "in vivo, female C57BL/6J mice"}, "[13]": {"details": "[peptide-lipid] complex (DMPC 1:5 weight:weight), 48 hours incubation"}, "[14]": {"details": "300 micrograms sub-cutaneous 2 hr prior to virus and second dose 24 hr after virus"}},
  "note": "Where two headings read alike, the source gives them in different places. Peptide text beside a SMILES is read from it.",
  "data": [
    {"compound": "CC(=O)N[C@@H](CC(C)C)C(=O)N[C@@H](CCCNC(=N)N)C(=O)N[C@@H](CCCCN)C(=O)N[C@@H](CC(C)C)C(=O)N[C@@H](CCCNC(=N)N)C(=O)N[C@@H](CCCCN)C(=O)N[C@@H](CCCNC(=N)N)C(=O)N[C@@H](CC(C)C)C(=O)N[C@@H](CC(C)C)C(=O)N[C@@H](CCCNC(=N)N)C(=O)N[C@@H](CC(=O)O)C(=O)N[C@@H](Cc1c[nH]c2ccccc12)C(=O)N[C@@H](CC(C)C)C(=O)N[C@@H](CCCCN)C(=O)N[C@@H](C)C(=O)N[C@@H](Cc1ccccc1)C(=O)N[C@@H](Cc1ccc(O)cc1)C(=O)N[C@@H](CC(=O)O)C(=O)N[C@@H](CCCCN)C(=O)N[C@H](C(=O)N[C@@H](C)C(=O)N[C@@H](CCC(=O)O)C(=O)N[C@@H](CCCCN)C(=O)N[C@@H](CC(C)C)C(=O)N[C@@H](CCCCN)C(=O)N[C@@H](CCC(=O)O)C(=O)N[C@@H](C)C(=O)N[C@@H](Cc1ccccc1)C(N)=O)C(C)C", "note": "[EVE4] (Ac-LRKLRKRLLRDWLKAFYDKVAEKLKEAF-NH2)", "values": [
      {"measurement": "cytotoxic effects", "setting": "[1]; [13]", "result": "lack of cytotoxic effects"},
      {"measurement": "cytotoxic effects", "setting": "[1]; peptide, 24 hours incubation", "result": "lack of cytotoxic effects"},
      {"measurement": "cytotoxic effects", "setting": "[1]; peptide, 48 hours incubation", "result": "lack of cytotoxic effects"},
      {"measurement": "antiviral activity in comparison to remdesivir", "setting": "[2]", "result": "greater antiviral activity than remdesivir"},
      {"measurement": "SARS-COV-2 positive area reduced to", "setting": "[2]; 1 μM", "result": "~0"},
      {"measurement": "IC50", "setting": "[2]", "result": "3 to 4.5", "unit": "µM"}
    ]},
    {"compound": "CC[C@H](C)[C@H](NC(=O)[C@H](CCCNC(=N)N)NC(=O)[C@H](C)NC(=O)[C@H](Cc1c[nH]c2ccccc12)NC(=O)[C@H](CO)NC(=O)CNC(=O)[C@H](CC(C)C)NC(=O)[C@H](Cc1ccccc1)NC(=O)[C@H](CCCNC(=N)N)NC(=O)[C@H](CCCNC(=N)N)NC(=O)[C@H](Cc1ccccc1)NC(=O)CNC(C)=O)C(=O)N[C@@H](Cc1ccc(O)cc1)C(=O)N[C@@H](CCCNC(=N)N)C(=O)N[C@@H](C)C(=O)N[C@@H](Cc1ccccc1)C(=O)N[C@H](C(=O)NCC(N)=O)C(C)C", "note": "[EVEmR18L, Ac-GFRRFLGSWARIYRAFVG-NH2] (Ac-GFRRFLGSWARIYRAFVG-NH2)", "values": [
      {"measurement": "cytotoxic effects", "setting": "[1]; [13]", "result": "lack of cytotoxic effects"},
      {"measurement": "cytotoxic effects", "setting": "[1]; peptide, 24 hours incubation", "result": "lack of cytotoxic effects"},
      {"measurement": "cytotoxic effects", "setting": "[1]; peptide, 48 hours incubation", "result": "lack of cytotoxic effects"},
      {"measurement": "antiviral activity in comparison to remdesivir", "setting": "[2]", "result": "greater antiviral activity than remdesivir"},
      {"measurement": "reduction of the SARS-COV-2 positive area", "setting": "[2]; 1 μM", "result": "approximately 80%"},
      {"measurement": "SARS-COV-2 positive area reduced to", "setting": "[2]; 10 μM", "result": "~0"},
      {"measurement": "IC50", "setting": "[2]", "result": "3 to 4.5", "unit": "µM"}
    ]},
    {"compound": "CCC(CC)COC(=O)[C@H](C)N[P@](=O)(OC[C@H]1O[C@@](C#N)(c2ccc3c(N)ncnn23)[C@H](O)[C@@H]1O)Oc1ccccc1", "note": "[remdesivir, reference compound]", "values": [
      {"measurement": "mouse survival", "setting": "[3]", "result": 40, "unit": "%"},
      {"measurement": "reduction of the SARS-COV-2 positive area", "setting": "[2]; 1 μM", "result": "approximately 65%"}
    ]},
    {"compound": "Ac-GFRRFYGSIWRFIRAFVG-NH2 [EVE18]", "values": [
      {"measurement": "bodyweight loss", "setting": "[4]; 14 days", "result": "No mouse in this group died or lost significant bodyweight"},
      {"measurement": "mortality (frank mortality or weight loss of 25%)", "setting": "[4]; 14 days", "result": "No mouse in this group died"},
      {"measurement": "mortality after rechallenge", "setting": "[5]; mice first given peptide-treated H1N1 (~45 min, ~10 μM), rechallenged several weeks later with 1200 pfu active H1N1A-California", "result": "No mouse in this group died during this period"},
      {"measurement": "rechallenged mice survived", "setting": "[6]", "result": "~75", "unit": "%"},
      {"measurement": "survival", "setting": "[7]", "result": 85, "unit": "%"},
      {"measurement": "mortality (timing)", "setting": "[8]; 300 micrograms 24 hr, 48 hr and 72 hrs after 54000 pfu virus", "result": "delayed mortality"},
      {"measurement": "survival", "setting": "[8]; 300 micrograms 24 hr, 48 hr and 72 hrs after 54000 pfu virus, 10 days, virus alone 20%", "result": 50, "unit": "%"},
      {"measurement": "mortality (timing)", "setting": "[8]; [14]", "result": "delayed the mortality"},
      {"measurement": "survival", "setting": "[8]; [14]", "result": 70, "unit": "%"},
      {"measurement": "survival", "setting": "[9]", "result": "All mice in this group survived"},
      {"measurement": "survival", "setting": "[10]", "result": "All mice in this group survived"}
    ]},
    {"compound": "Ac-RRFYGSIWRFIRAF-NH2 [EVE14]", "values": [
      {"measurement": "mortality or weight loss after second challenge", "setting": "[11]", "result": "does not elicit mortality or weight loss"},
      {"measurement": "weight loss", "setting": "[12]; 300 micrograms sub-cutaneously plus 150 microgram boosters (24, 48 hr or 24-96 hr), 1200 pfu H1N1 intranasal, compared to untreated mice", "result": "significant delay in their weight loss which also was blunted"},
      {"measurement": "weight loss", "setting": "[12]; Example 13, FIG. 14: 1200 pfu H1N1 intranasal, peptide sub-cutaneously", "result": "much reduced weight loss"},
      {"measurement": "survival (or bodyweight loss of less than 25%)", "setting": "[12]; both sub-cutaneous treatment groups compared to H1N1 alone", "result": "significantly increased survival"},
      {"measurement": "bodyweight loss", "setting": "[4]; 14 days", "result": "incapable of inducing weight loss or frank death"},
      {"measurement": "death (frank death or 25% decrease in bodyweight)", "setting": "[4]; 14 days", "result": "incapable of inducing death"},
      {"measurement": "mortality (frank mortality or weight loss of 25%)", "setting": "[4]; 14 days", "result": "No mice in this group died"},
      {"measurement": "weight loss", "setting": "[4]; 14 days", "result": "incapable of inducing weight loss"},
      {"measurement": "survival", "setting": "[4]; mouse, in vivo", "result": "survived this initial challenge"},
      {"measurement": "weight loss", "setting": "[4]; mouse, in vivo", "result": "lost little weight"},
      {"measurement": "bodyweight loss after second challenge", "setting": "[5]; mice first given H1N1A pre-incubated with peptide for 60 minutes, second challenge 1200 pfu active H1N1 several weeks later", "result": "no mouse in the group which underwent a second H1N1 challenge lost significant bodyweight"},
      {"measurement": "mice survived", "setting": "[10]", "result": "Ninety"}
    ]}
  ]
}
